Consider four compounds from patent US20130129720A1, “Combination Cancer Therapies with Wortmannin Analogs” (ONCOTHYREON INC., priority 2010, published 2013).

The term IC50 denotes the midpoint of a concentration-inhibition curve. In general, AUC(0-t) refers to the area under the concentration-time curve up to a stated or last time point. The Cmax is the highest concentration seen after dosing. For orientation: half-life means the time in which the quantity being followed falls by half. One may read the Tmax as the time from dosing to the highest level.

The target in one data set is PIK3CB (Homo sapiens, UniProt P42338). In words: in vitro kinase assay, PIK3CB. Format: biochemical. From the text:
(§1) Table 1 illustrates the potency of 17-hydroxy PX-866 metabolite in in vitro kinase assays: […]

Data set [1] in a line: Phase I trial: clinical pharmacokinetics.
Another data set deals with p110α (Homo sapiens, UniProt P42336). In words: cell based assays, p110α. As to conditions: for IC50: in cell based assays. From the text:
(§2) PX-866 is an pan-isoform inhibitor of Class I P1-3K that covalently binds to ATP binding site of the p110 catalytic subunit. Described herein are studies that illustrate rapid metabolism of PX-866 to a 17-hydroxy PX-866 derivative.

Another data set concerns the target PIK3CD (Homo sapiens, UniProt O00329). In words: in vitro kinase assay, PIK3CD. Format: biochemical.
Description: as §1

For the next data set, the target named is p110β (Homo sapiens, UniProt P42338). In words: cell based assays, p110β. As to conditions: in cell based assays.
Description: as §2

Another data set has as its target PIK3CA (Homo sapiens, UniProt P42336). In words: in vitro kinase assay, PIK3CA. In kind it is biochemical.
Description: as §1

The next data set addresses PIK3CG (Homo sapiens, UniProt P48736). In words: in vitro kinase assay, PIK3CG. Format: biochemical.
Description: as §1

A short description of a further data set: clinical. Conditions: human, in vivo.
The test system of data set [2] is PI-3K pathway (p-mTOR and p-S6). In words: Phase I trial: pharmacodynamics in PBMCs stimulated ex vivo, FACS based assay. More on the design: species or system human. As to conditions: PBMCs of treated patients. As for the experimental part: The pharmacodynamic effects of PX-866 in patients treated in the phase I single agent study were assessed using isolated peripheral blood mononuclear cells (PBMCs) stimulated ex vivo via FACS based assay. […] The study provided Evidence for pathway inhibition lasting up to 3 days post-treatment.

For data set [3], the system named is A549 lung tumor xenografts. As to conditions: 2 mg/kg PX-866 daily treatment groups. As for the experimental part: H460 and A549 lung tumor xenografts were implanted subcutaneously in nude mice according to previously described procedures. PX-866 was tested on both a daily (2 mg/kg) and every-other-day dosing (3 mg/kg) schedule alone, and in combination with a 10 mg/kg dose of docetaxel. The dosing schedule of PX-866 relative to docetaxel was varied to test the effect of docetaxel treatment prior to or subsequent to PX-866 treatment. A table of the following dosing regimens is as follows with animals in Group 1 receiving a daily vehicle: […]

For another data set, the system named is advanced solid tumors. In words: Phase I trial of oral PX-866: response per RECIST. Format: in vivo, human. As for the experimental part: Patient response was evaluated according to Response Evaluation Criteria in Solid Tumors (RECIST). Briefly, all measurable lesions up to a maximum of five lesions, representative of all involved organs were identified as target lesions and recorded and measured at baseline. Target lesions were selected on the basis of their size (lesions with the longest diameter) and their suitability for accurate repeated measurements (either by imaging techniques or clinically). A sum of the longest diameter (LD) for all target lesions was calculated and reported as the baseline sum LD. The baseline sum LD was used as reference by which to characterize the objective tumor. All other lesions (or sites of disease) were identified as non-target lesions and were also be recorded at baseline. Measurements of these lesions were not required, but the presence or absence of each was noted throughout follow-up.
A Complete Response (CR) indicated a disappearance of all target lesions.

A further data set deals with p-AKT/T-AKT. In words: Phase I trial: p-AKT/T-AKT pharmacodynamics. In kind it is in vivo, human. As to conditions: 3 of 4 patients at 8 mg, 4 hours after a single oral dose.
The nature of data set [4]: Phase I trial of oral PX-866: safety, DLT and MTD. Format: in vivo, human. As for the experimental part: This was an Open-label dose escalation study with expansion cohort at Maximal Tolerated Dose (MTD), 3+3 design and to test efficacy of 2 dosing schedules (intermittent and continuous). PX-866 was administered as an oral dose.
The primary and secondary objectives were tested using two different dosing regimens: 10 days of drug administration and daily administration for 28 days.
Intermittent schedule: 10 dose levels tested (0.5-16 mg). The starting dose level was 0.5 mg. Doses increased as follows: 100% escalation up to 2 mg, 50% escalation up to 4.5 mg, and approximately 30% escalation until the MTD is identified. The highest dose level at which no more than ⅙ patients experiences DLT was declared the MTD. The resulting dose levels were: 0.5, 1, 2, 3, 4.5, 6, 8, 10, 12 and 16 mg.
FIG. 1 illustrates the dosing schedule for intermittent dosing where PX-866 was given to patients on days 1-5 and 8-12 of a 28-day cycle.
Continuous dosing schedule: The starting dose was two dose levels below the MTD of intermittent dosing (8 mg) and subsequent dose levels was one or two dose levels (10 mg or 8 mg) below the MTD of intermittent dosing dependent on recommendation of the dose cohort review committee. FIG. 1 illustrates the dosing schedule for continuous dosing.

The conditions of data set [5]: aqueous solutions at 37° C. or 0° C. at neutral pH; cited from earlier work.
For data set [6] the following is noted: in vivo; cited from earlier work.
The next data set deals with CUHN015 tumors. In words: direct patient tumor model of SCCHN, CUHN015. In kind it is in vivo, nude mice. Conditions: PX-866 2 mg/kg 5 out of 7 days; docetaxel 20 mg/kg IP weekly. As for the experimental part:
Briefly, these models employed direct implantation of patients' tumors into nude mice according to Keysar et al., J Clin Oncol 28:15s, 2010 (suppl. abstruct 5558).
Animals were treated with PX-866 alone, and in combination with 20 mg/kg docetaxel dosed intraperitoneally (IP) on a weekly schedule. Saline treated animals and 20 mg/kg docetaxel dosed animals served as controls for the study.

Sequence of p110α (P42336 whole entry, canonical isoform): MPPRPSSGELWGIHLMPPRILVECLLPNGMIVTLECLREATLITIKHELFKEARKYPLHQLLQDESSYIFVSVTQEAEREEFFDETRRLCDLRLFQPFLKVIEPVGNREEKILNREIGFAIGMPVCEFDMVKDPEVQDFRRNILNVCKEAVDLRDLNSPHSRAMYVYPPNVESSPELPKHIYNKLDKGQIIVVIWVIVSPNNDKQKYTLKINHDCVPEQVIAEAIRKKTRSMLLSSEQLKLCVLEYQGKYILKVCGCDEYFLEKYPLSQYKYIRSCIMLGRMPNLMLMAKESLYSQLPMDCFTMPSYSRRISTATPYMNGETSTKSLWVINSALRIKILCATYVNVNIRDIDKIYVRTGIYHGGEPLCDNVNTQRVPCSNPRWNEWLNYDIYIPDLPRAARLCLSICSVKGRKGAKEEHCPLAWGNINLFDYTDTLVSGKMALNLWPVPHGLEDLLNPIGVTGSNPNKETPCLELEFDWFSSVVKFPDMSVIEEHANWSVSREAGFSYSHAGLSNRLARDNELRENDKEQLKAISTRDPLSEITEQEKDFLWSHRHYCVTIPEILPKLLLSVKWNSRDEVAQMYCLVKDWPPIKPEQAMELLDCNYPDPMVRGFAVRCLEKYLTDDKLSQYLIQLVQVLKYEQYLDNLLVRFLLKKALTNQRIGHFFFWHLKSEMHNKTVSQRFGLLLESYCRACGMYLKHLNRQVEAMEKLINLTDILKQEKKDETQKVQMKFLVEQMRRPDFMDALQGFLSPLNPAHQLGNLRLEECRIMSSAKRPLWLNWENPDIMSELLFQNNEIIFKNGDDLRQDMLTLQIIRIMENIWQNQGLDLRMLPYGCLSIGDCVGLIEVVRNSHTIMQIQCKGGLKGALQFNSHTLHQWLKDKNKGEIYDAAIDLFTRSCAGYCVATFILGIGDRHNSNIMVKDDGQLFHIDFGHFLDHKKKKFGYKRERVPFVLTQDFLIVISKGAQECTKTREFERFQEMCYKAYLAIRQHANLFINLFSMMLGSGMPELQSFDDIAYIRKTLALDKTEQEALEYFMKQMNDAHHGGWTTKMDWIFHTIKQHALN
Sequence of p110α (P27986 whole entry partner, canonical isoform): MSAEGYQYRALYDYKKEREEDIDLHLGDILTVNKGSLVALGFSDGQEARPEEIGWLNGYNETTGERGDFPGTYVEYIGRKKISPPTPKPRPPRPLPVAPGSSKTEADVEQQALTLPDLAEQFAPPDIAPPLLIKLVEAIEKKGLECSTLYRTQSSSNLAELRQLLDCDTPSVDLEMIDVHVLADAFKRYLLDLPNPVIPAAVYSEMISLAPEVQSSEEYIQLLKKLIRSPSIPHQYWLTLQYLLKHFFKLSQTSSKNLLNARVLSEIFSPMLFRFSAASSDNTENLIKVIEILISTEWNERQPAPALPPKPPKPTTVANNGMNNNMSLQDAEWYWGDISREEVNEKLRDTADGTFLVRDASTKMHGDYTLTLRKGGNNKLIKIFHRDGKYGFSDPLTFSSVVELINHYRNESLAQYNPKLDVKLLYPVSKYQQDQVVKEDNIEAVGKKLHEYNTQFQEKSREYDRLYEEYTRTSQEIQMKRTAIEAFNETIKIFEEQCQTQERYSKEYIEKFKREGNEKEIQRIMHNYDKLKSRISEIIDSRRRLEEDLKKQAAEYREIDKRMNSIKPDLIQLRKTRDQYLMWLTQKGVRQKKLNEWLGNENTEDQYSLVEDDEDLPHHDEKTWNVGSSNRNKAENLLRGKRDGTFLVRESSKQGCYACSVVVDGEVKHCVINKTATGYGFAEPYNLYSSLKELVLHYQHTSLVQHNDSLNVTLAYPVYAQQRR
Sequence of p110β (P42338 whole entry): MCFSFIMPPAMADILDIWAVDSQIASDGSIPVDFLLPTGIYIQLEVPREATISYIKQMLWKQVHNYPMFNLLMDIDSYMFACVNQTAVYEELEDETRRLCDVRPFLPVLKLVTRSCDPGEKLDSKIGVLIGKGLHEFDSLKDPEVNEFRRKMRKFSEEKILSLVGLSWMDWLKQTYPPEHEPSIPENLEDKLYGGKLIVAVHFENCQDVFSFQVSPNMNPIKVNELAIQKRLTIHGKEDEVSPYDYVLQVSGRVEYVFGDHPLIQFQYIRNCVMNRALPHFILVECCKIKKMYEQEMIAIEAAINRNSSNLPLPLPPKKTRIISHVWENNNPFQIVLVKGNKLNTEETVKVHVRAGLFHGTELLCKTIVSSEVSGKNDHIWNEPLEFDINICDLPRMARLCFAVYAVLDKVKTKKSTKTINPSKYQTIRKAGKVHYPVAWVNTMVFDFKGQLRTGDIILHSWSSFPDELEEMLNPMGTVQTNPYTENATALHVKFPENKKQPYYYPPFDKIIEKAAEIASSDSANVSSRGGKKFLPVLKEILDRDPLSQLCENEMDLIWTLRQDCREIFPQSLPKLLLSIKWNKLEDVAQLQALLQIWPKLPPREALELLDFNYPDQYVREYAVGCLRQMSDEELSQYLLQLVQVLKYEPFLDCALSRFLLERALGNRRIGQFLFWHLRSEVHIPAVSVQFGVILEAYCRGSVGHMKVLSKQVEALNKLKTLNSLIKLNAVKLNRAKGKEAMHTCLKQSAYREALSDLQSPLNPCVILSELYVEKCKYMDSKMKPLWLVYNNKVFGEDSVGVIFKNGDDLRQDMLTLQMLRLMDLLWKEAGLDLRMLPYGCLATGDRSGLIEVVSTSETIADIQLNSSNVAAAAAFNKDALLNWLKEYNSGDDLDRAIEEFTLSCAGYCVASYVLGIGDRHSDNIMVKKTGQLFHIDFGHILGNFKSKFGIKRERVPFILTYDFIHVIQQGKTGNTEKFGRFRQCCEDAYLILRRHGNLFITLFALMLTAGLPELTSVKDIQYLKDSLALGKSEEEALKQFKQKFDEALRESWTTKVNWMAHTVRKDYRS
Sequence of p110β (P27986 whole entry partner): as the sequence (P27986 whole entry partner, canonical isoform) above
Sequence of PIK3CB (P42338 whole entry): as the sequence (P42338 whole entry) above
Sequence of PIK3CB (P27986 whole entry partner): as the sequence (P27986 whole entry partner, canonical isoform) above
Sequence of PIK3CD (O00329 whole entry): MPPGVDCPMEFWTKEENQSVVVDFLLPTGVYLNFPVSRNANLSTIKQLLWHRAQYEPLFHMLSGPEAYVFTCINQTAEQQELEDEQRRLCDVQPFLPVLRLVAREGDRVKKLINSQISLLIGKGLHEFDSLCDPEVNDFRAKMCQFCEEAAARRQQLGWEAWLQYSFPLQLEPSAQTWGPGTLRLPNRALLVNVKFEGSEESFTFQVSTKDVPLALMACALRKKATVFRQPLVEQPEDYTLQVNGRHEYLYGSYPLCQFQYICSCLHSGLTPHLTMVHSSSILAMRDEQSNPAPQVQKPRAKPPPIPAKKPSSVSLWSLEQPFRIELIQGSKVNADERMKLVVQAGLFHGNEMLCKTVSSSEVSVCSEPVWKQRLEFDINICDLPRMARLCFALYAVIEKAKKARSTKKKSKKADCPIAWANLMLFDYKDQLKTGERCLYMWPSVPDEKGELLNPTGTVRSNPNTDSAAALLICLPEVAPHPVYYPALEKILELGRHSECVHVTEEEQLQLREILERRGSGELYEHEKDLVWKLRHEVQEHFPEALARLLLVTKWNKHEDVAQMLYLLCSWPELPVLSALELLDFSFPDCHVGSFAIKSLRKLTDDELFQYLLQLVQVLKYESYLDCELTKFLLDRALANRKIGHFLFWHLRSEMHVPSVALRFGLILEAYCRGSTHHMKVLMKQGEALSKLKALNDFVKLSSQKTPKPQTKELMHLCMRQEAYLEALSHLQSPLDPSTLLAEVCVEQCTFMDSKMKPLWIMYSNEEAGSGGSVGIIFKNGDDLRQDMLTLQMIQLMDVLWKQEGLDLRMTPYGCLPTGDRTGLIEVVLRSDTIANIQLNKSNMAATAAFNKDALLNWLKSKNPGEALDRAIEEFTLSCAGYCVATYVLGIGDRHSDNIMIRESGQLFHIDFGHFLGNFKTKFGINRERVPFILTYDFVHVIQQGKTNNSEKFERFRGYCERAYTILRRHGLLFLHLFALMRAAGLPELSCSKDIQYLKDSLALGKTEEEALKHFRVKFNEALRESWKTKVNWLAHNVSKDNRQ
Sequence of PIK3CD (P27986 whole entry partner): as the sequence (P27986 whole entry partner, canonical isoform) above
Sequence of PIK3CA (P42336 whole entry): as the sequence (P42336 whole entry, canonical isoform) above
Sequence of PIK3CA (P27986 whole entry partner): as the sequence (P27986 whole entry partner, canonical isoform) above

Take `C=CCN(C=C1C(=O)OC(COC)C2(C)C1=C(O)C(=O)C1=C2C(OC(C)=O)CC2(C)C(O)CCC12)CC=C` (centres unmarked) [17-OH PX-866]: the IC50 against PIK3CB worked out at 57 nM; against p110α, 14 nM; against PIK3CD, 131 nM; against p110β, 57 nM; against PIK3CA, 14 nM; against PIK3CG, 148 nM. For the same compound, in data set [1] (12 mg cohort, intermittent dosing), the drug accumulation entry was “no evidence of drug accumulation”. The “AUC in humans compared with mice” value in [1] (due to increased mean residence time in humans) was “exceeded AUC in mice”. Further, the “Cmax in humans compared with mice” value in data set [1] (mice treated at an efficacious dose of PX-866 (2 mg/kg)) was “equal to or exceed peak levels observed in mice”. Moreover, on p110α (cell proliferation assays versus p110α and p110β isoforms, relative to PX-866), the increase in potency is on record as 2-5 fold. In “clinical” (8 mg), this compound showed an AUC(0-t) of 4.22 ng·h/mL. The same compound came in with a Cmax in the data set “clinical” (8 mg) of 1.14 ng/mL. Further, in “clinical” (8 mg), the half-life is 3.62 h. Also, the Tmax in “clinical” (po) is 0.67 to 1.07 h.

Turning to `C=CCN(/C=C1/C(=O)O[C@H](COC)[C@@]2(C)C1=C(O)C(=O)C1=C2[C@H](OC(C)=O)C[C@]2(C)C(=O)CC[C@@H]12)CC=C` [PX-866, Acetic acid 4-diallylaminomethylene-6-hydroxy-1-α-methoxymethyl-10β,13β-dimethyl-3,7,17-trioxo-1,3,4,7,10,11β,12,13,14α,15,16,17-dodecahydro-2-oxa-cyclopenta[α]phenanthren-11-yl ester], the IC50 at PIK3CB worked out at 88 nM; against p110α, 39 nM; against PIK3CD it was 124 nM; against p110β it was 88 nM; against PIK3CA, 39 nM; against PIK3CG, 198 nM. Further, in data set [1] (oral, patients), the “conversion of parent to 17-OH metabolite” value is listed as “rapid conversion”. Also, in data set [1] (oral, patients, with rare exceptions), the “plasma level of parent” value is reported as “below the limits of detection”. Moreover, the “duration of pathway inhibition post-treatment” value in data set [2] is on record as “up to 3 days”. In data set [3], the mortality result is “Increased mortality”. The “Disease stabilization, patients” value with advanced solid tumors (continuous dosing) is on record as 71%; in the data set on advanced solid tumors (intermittent dosing), 16%. In addition, the “decrease in p-AKT/T-AKT” value in the data set on p-AKT/T-AKT is at least 60%. Also, in data set [4] (continuous dosing), the ALT/AST elevation entry is reported as “ALT/AST elevation was observed”. Further, the “Most common adverse events (AEs)” value in data set [4] (continuous dosing) is “diarrhea, nausea, vomiting, headache and fatigue”; in [4] (intermittent dosing), “diarrhea, nausea, vomiting, and constipation”. Besides, the “DLT, patients” value in [4] (continuous dosing, 10 mg per day) was 2/3. For the same compound, the “toxicity in patients receiving >2 cycles” value in data set [4] (intermittent dosing schedule) was “No significant increase in toxicity”. Also, the “Dose limiting toxicity (DLT), patients” value in data set [4] (intermittent dosing, 16 mg per day) is on record as 2/5. In addition, the “Maximal Tolerated Dose (MTD) for continuous dosing” value in data set [4] (oral, daily for 28 days) was determined as 8 mg per day. In addition, the “Maximal Tolerated Dose (MTD) for intermittent dosing” value in data set [4] (oral, days 1-5 and 8-12 of a 28-day cycle) was determined as 12 mg per day.

Take `COC[C@H]1OC(=O)c2coc3c2[C@@]1(C)C1=C(C3=O)[C@@H]2CCC(=O)[C@@]2(C)C[C@H]1OC(C)=O` [Wortmannin]: the stability result in data set [5] is “subject to decomposition by hydrolytic opening of the furan ring”. Also, the toxicity entry in data set [6] is “liver and hematologic toxicity”.

In the case of `CC(=O)O[C@@]12CO[C@@H]1C[C@H](O)[C@@]1(C)C(=O)[C@H](O)C3=C(C)[C@@H](OC(=O)[C@H](O)[C@@H](NC(=O)OC(C)(C)C)c4ccccc4)C[C@@](O)([C@@H](OC(=O)c4ccccc4)[C@H]21)C3(C)C` [docetaxel, (2R,3S)—N-carboxy-3-phenylisoserine,N-tert-butyl ester, 13-ester with 5β-20-epoxy-1,2α,4,7β,10β,13α-hexahydroxytax-11-en-9-one 4-acetate 2-benzoate, trihydrate], the tumor growth entry in the data set with CUHN015 tumors is “no effect on tumor growth”.
